This is an account of results in ChEMBL document CHEMBL1201862, “PubChem BioAssay data set” (2004).

What all share (test): DTP human tumour cell line panel, 48 h
For experiment [1], the system named is SNB-78.
Experiment [2] deals with XF498.
Experiment [3] has as its system KM-20L2.
Experiment [4] deals with M19-MEL.
In experiment [5] the test system is DLD-1.
In experiment [6] the test system is DMS-114.
Experiment [7] concerns RXF 631.
For experiment [8], the system named is DMS-273.
Experiment [9] deals with HOP-18.

Broadly, the GI50 is the concentration that inhibits growth by half.

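These data come from cells grown in 96-well plates and exposed to compound for 48 hours at five concentrations. Here, GI50 denotes the concentration required for 50% inhibition of growth.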 Calls of active or inactive are those of the source. No stated cut-off is given here; in the data, active = GI50 up to about 1.1 µM and inactive = higher.

Take `COc1ccc(CC2NCCc3c2[nH]c2ccccc32)cc1` (stereo not drawn): the GI50 in experiment [1] was 70.6 µM (inactive); in [2] it was 16.9 µM (inactive); in [3] it was 33.7 µM (inactive); in experiment [4], 71.4 µM (inactive); in experiment [5], > 100 µM (inactive); in experiment [6] it was 33.1 µM (inactive). The GI50 is 25.3 µM (inactive) in [7] and 26.5 µM (inactive) in [8].

Take `Cc1cc(O)nc(NN2C(Cl)C(=O)C2c2ccc(Cl)cc2)n1` (stereo not drawn): the GI50 in experiment [1] is 17.9 µM (inactive); in experiment [3], 20.6 µM (inactive); in experiment [9], 8.55 µM (inactive); in experiment [4] it was 17.7 µM (inactive); in [6] it was 13.5 µM (inactive); in [8], 11.9 µM (inactive).

Turning to `CC1CCC2(OCCO2)[C@]2(C)CC(O)C(=O)C=C12` (stereo partly drawn), the GI50 in experiment [2], in [9], in experiment [4], in experiment [5], in experiment [6] and in experiment [8] was > 100 µM (inactive) each time.

Take `CC1(C)OCN(c2ccc(N3CCOCC3)cc2)Cn2c1nc1ccccc12`: the GI50 in [1], in experiment [3], in experiment [9], in experiment [4], in [5] and in [6] was > 100 µM (inactive) in each case. Further, the GI50 in experiment [8] was 80.9 µM (inactive).

As for `CC(C)N(C(=O)C12C3C4C5C3C1(C(=O)O)C5C42)C(C)C` (stereo not drawn), the GI50 in experiment [1], in experiment [2], in experiment [3], in [4], in experiment [5] and in [6] was > 100 µM (inactive) in each case. The GI50 in experiment [7] and in experiment [8] was > 100 µM (inactive) each time.

For `CC(=O)OC12CCCCC1C1(CCCC1)NC2=O` (stereo not drawn), the GI50 in [1], in experiment [2], in [3], in [9], in [4] and in [5] was > 100 µM (inactive) each time. Moreover, the GI50 in experiment [6] was > 100 µM (inactive).

Take `COc1cccc(N2C(=O)[C@H]3[C@H]4CC(C(C)(C)C)CC[C@H]4c4c([nH]c5ccccc45)[C@H]3C2=O)c1` (stereo partly drawn): the GI50 in [1] was 14.5 µM (inactive); in experiment [4], 19 µM (inactive); in experiment [5], 22.5 µM (inactive); in experiment [6] it was 17.7 µM (inactive); in [7], 17.6 µM (inactive); in experiment [8] it was 18.3 µM (inactive).

As to `Cc1ccc(NC(=O)C(=O)C2NC(=S)NC2=O)c([N+](=O)[O-])c1` (stereo not drawn), the GI50 in [1], in experiment [2], in experiment [3], in experiment [9], in experiment [4] and in experiment [5] was > 100 µM (inactive) throughout. Moreover, the GI50 in [6] and in experiment [8] was > 100 µM (inactive) throughout.

`CCc1c(OC(C)=O)c2c(NC3OC(COC(C)=O)C(OC(C)=O)C(OC(C)=O)C3OC(C)=O)nc(OC)nc2oc1=O` (stereo not drawn): the GI50 in experiment [1], in experiment [2], in experiment [3], in experiment [9], in [4] and in experiment [5] was > 100 µM (inactive) throughout. Moreover, the GI50 in experiment [6] and in experiment [8] was > 100 µM (inactive) each time.

Turning to `O=C1[C@H]2ON(c3ccccc3)C(c3ccccc3)[C@H]2C(=O)N1c1ccc(Cc2ccc(N3C(=O)[C@@H]4ON(c5ccccc5)C(c5ccccc5)[C@@H]4C3=O)cc2)cc1` (stereo partly drawn), the GI50 in [1], in [3], in experiment [9], in [5], in experiment [6] and in experiment [7] was > 100 µM (inactive) each time. The GI50 in experiment [8] was > 100 µM (inactive).

For `CCN(CC)CCC(=O)Nc1ccc2c(c1)C(=O)c1ccc(NC(=O)CCN(CC)CC)cc1C2=O`, the GI50 in experiment [1] was 5.96 µM (inactive); in experiment [3], 14.6 µM (inactive); in [9], 0.475 µM (active); in experiment [4], > 100 µM (inactive); in [5] it was 1.81 µM (inactive); in experiment [6], 3.21 µM (inactive). Further, the GI50 in experiment [8] was 1.19 µM (inactive).

Consider `O=[N+]([O-])c1nccn1COCCI`, for which the GI50 in [1], in experiment [2], in experiment [3], in experiment [4], in experiment [5] and in experiment [6] was > 100 µM (inactive) throughout. In experiment [8], the GI50 was > 100 µM (inactive).

Regarding `C=C1C(=O)C23C(O)C1CC[C@H]2C12CCCC(C)(COC(C)=O)[C@H]1[C@H](O)[C@]3(O)OC2` (stereo partly drawn), the GI50 was 0.653 µM (active) in experiment [1]; 1.4 µM (inactive) in [2]; 1.56 µM (inactive) in [3]; 1.27 µM (inactive) in experiment [9]; 2.01 µM (inactive) in experiment [4]; 0.577 µM (active) in [5]. The GI50 in experiment [6] is 1.87 µM (inactive); in experiment [8], 1.94 µM (inactive).

On to `O=C(O/N=C1/CCCC/C1=C\c1ccccc1)c1ccc(Cl)cc1`, for which the GI50 in experiment [1] is > 100 µM (inactive); in experiment [2], 0.439 µM (active); in experiment [3], > 100 µM (inactive); in experiment [9], > 100 µM (inactive); in [4], > 100 µM (inactive); in experiment [5], > 100 µM (inactive). In [8], the GI50 is > 100 µM (inactive).

Take `Cc1nc2ccccc2c(=O)n1/N=C(\N=N\c1cc(Cl)ccc1Cl)c1cccc(-c2ccco2)c1`: the GI50 in [9] was > 100 µM (inactive); in experiment [4], > 100 µM (inactive); in experiment [5] it was 87.9 µM (inactive); in [6] it was 41.4 µM (inactive); in [7] it was > 100 µM (inactive); in [8], 63.2 µM (inactive).

As for `c1cnc2nc3n(c2c1)CSC3`, the GI50 in experiment [1], in experiment [2], in experiment [3], in experiment [4], in [5] and in experiment [6] was > 100 µM (inactive) each time.

As to `O=S(=O)(N/N=C/c1ccc(Cl)c(Cl)c1)c1ccccc1`, the GI50 is 41.5 µM (inactive) in experiment [1]; 32.2 µM (inactive) in experiment [2]; 62.1 µM (inactive) in [3]; 36.3 µM (inactive) in [9]; 37.3 µM (inactive) in [4]; 31.3 µM (inactive) in experiment [5]. The GI50 is 23.8 µM (inactive) in experiment [6] and 37.7 µM (inactive) in experiment [8].

Take `NS(=O)(=O)c1ccc(NC(=O)c2cccc3c(=O)c4ccccc4[nH]c23)cc1`: the GI50 was 49.3 µM (inactive) in experiment [1]; 11.5 µM (inactive) in experiment [2]; 38.6 µM (inactive) in experiment [3]; > 100 µM (inactive) in [9]; 73.3 µM (inactive) in [4]; > 100 µM (inactive) in [5]. Moreover, the GI50 is 74.8 µM (inactive) in experiment [6] and 70.1 µM (inactive) in experiment [8].
